# Like-named read-outs stand apart in the source and are kept apart here.
# Columns and labels:
# Assay in all cases: SelectScreen Z-LYTE kinase activity assay (SI Table 6)
# Type in all cases: biochemical
# [1] = target: protein kinases of the Z-LYTE panel (Homo sapiens, UniProt Q13153)
# Outline: (§1)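 Single-point profiling, 1 μM 1938; LanthaScreen binding, Adapta or Z-LYTE read-outs; 133 protein + 7 lipid kinases.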
# [2] = target: T1, protein kinases of the Z-LYTE panel (Homo sapiens, UniProt O14920)
# T1 sequence (O14920 1-756): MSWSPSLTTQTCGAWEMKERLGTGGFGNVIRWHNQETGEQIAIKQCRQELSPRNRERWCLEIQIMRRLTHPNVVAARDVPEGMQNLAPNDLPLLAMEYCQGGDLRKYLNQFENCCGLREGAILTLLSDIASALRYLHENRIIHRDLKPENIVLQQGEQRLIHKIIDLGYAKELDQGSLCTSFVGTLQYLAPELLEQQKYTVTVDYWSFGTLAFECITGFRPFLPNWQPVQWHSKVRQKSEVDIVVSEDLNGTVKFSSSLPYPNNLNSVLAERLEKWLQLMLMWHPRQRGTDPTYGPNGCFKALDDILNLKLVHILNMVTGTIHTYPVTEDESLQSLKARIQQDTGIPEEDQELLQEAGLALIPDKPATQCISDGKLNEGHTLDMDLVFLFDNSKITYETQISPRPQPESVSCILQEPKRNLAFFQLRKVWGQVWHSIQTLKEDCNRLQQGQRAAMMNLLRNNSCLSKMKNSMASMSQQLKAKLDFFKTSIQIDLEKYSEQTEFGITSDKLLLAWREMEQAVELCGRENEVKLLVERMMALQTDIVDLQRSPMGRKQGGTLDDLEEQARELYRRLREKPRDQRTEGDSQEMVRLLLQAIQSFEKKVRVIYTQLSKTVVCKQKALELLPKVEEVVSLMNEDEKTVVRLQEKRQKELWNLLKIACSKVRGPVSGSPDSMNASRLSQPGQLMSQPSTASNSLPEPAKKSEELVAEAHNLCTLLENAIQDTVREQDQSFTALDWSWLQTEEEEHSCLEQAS
# Outline: as §1
# [3] = target: protein kinases of the Z-LYTE panel (Homo sapiens, UniProt Q16539)
# Chain of protein kinases of the Z-LYTE panel (Homo sapiens, UniProt Q16539) (Q16539 whole entry): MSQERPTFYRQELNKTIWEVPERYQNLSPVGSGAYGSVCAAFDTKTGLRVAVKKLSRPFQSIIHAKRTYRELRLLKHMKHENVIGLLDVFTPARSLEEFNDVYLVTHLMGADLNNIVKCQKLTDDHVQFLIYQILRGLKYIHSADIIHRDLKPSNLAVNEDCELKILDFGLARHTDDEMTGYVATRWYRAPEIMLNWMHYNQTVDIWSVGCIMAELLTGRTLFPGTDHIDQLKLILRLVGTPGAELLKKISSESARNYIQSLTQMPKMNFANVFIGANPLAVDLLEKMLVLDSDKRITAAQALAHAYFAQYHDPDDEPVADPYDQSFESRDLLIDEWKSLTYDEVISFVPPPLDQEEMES
# Outline: as §1
# [4] = target: T2, protein kinases of the Z-LYTE panel (Homo sapiens, UniProt P54760)
# T2 sequence (P54760 16-987): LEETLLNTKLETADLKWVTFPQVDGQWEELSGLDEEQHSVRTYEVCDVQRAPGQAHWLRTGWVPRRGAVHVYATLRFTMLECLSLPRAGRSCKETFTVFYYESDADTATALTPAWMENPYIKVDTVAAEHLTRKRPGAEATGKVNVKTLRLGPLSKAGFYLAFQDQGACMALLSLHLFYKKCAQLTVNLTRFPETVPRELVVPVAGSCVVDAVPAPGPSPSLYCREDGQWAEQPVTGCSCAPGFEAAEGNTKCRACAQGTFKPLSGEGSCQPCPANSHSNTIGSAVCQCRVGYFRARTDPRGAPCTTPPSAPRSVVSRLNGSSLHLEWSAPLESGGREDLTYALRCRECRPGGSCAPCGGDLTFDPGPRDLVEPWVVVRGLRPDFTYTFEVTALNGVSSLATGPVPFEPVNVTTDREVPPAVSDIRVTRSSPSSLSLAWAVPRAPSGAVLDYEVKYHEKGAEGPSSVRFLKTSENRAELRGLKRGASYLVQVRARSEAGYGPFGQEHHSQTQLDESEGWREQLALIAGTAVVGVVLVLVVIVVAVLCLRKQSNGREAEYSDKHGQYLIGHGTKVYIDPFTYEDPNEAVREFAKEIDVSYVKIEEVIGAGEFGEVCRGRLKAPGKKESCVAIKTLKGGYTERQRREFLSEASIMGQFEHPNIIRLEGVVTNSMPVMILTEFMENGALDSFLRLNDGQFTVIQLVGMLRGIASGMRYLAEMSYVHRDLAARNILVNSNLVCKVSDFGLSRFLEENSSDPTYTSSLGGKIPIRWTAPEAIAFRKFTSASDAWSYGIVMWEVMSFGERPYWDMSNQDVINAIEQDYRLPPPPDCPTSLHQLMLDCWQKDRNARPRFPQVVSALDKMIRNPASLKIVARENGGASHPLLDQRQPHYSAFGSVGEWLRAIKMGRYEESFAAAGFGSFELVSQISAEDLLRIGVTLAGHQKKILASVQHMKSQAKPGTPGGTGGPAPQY
# Outline: as §1
# Chain of protein kinases of the Z-LYTE panel (Homo sapiens, UniProt Q13153) (Q13153 whole entry): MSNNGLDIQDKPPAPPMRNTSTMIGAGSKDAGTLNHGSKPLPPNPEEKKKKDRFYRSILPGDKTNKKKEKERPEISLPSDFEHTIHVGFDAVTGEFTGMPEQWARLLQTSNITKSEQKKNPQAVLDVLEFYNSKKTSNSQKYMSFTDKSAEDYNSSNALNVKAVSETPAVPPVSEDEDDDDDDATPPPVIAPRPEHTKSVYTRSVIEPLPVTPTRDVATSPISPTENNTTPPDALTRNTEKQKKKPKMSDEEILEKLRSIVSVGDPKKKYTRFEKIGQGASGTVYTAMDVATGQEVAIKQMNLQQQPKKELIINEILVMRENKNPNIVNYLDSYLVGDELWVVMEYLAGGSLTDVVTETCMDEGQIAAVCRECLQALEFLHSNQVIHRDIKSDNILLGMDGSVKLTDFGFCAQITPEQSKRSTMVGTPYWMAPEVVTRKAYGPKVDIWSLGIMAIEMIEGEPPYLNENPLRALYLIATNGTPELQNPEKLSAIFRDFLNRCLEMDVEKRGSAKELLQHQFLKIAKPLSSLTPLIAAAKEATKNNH
smiles,measurement,setting,value
CCN1CCN(c2ccc(Nc3cc(Nc4cccc5c4N(C(C)=O)CC5)ccn3)cc2)CC1 [Compound 1938],inhibition at 1 µM,[1]; read-out: % Inhibition Point 1,2.85%
same,inhibition at 1 µM,[1]; read-out: % Inhibition Point 2,5%
same,inhibition at 1 µM,[1]; read-out: % Inhibition mean,4%
same,inhibition at 1 µM,[2]; read-out: % Inhibition Point 1,8.52%
same,inhibition at 1 µM,[2]; read-out: % Inhibition Point 2,7%
same,inhibition at 1 µM,[2]; read-out: % Inhibition mean,7.61%
same,inhibition at 1 µM,[3]; read-out: % Inhibition Point 1,9%
same,inhibition at 1 µM,[3]; read-out: % Inhibition Point 2,9%
same,inhibition at 1 µM,[3]; read-out: % Inhibition mean,9%
same,inhibition at 1 µM,[4]; read-out: % Inhibition Point 1,10%
same,inhibition at 1 µM,[4]; read-out: % Inhibition Point 2,-1.75%
same,inhibition at 1 µM,[4]; read-out: % Inhibition mean,4%

# From publication PMC7614683, “A small molecule PI3Kα activator for cardioprotection and neuroregeneration” (Nature, 2023)
